Experiment [1] has as its system Female Sprague Dawley rats. Briefly: Distension-induced rhythmic contraction (DIRC) model of the micturition reflex. In kind it is in vivo, rat. Also on record: key: E: Produced a significant increase in contraction interval relative to pre-drug interval. The following applies: urethane-anesthetized female rats, i.v. or i.p.; vs pre-drug interval. As for the experimental part:
The effects of compounds on the micturition reflex were assessed in the “distension-induced rhythmic contraction” (DIRC), as described in previous publications (e.g. Maggi et al, 1987; Morikawa et al, 1992), and Continuous Slow Transvesicular Infusion (CSTI) models in rats. Female Sprague Dawley rats weighing approximately 300 g were anesthetized with subcutaneous urethane (1.2 g/kg). The trachea was cannulated with PE240 tubing to provide a clear airway throughout the experiment. A midline abdominal incision was made and the left and right ureters were isolated. The ureters were ligated distally (to prevent escape of fluids from the bladder) and cannulated proximally with PE10 tubing. The incision was closed using 4-0 silk sutures, leaving the PE10 lines routed to the exterior for the elimination of urine. The bladder was canulated via the transurethral route using PE50 tubing inserted 2.5 cm beyond the urethral opening. This cannula was secured to the tail using tape and connected to a pressure transducer. To prevent leakage from the bladder, the cannula was tied tightly to the exterior urethral opening using 4-0 silk. To initiate the micturition reflex, the bladder was first emptied by applying pressure to the lower abdomen, and then filled with normal saline in […] (maximum=2 ml) until spontaneous bladder contractions occurred (typically 20-40 mmHg at a rate of one contraction every 2 to 3 minutes. Once a regular rhythm was established, vehicle (saline) or Test Compounds were administered i.v. or i.p. to explore their effects on bladder activity. The 5-HT1A antagonist WAY-100635 was given as a positive control. Data were expressed as contraction interval (in seconds) before drug application (basal), or after the application of vehicle or test article.

For experiment [2], the system named is Male Sprague Dawley rats. Briefly: Continuous Slow Transvesicular Infusion (CSTI) rat model. In kind it is in vivo. As to conditions: intragastric administration, vs baseline capacity. Also on record: key: F: Produced an increase in bladder capacity in rats relative to baseline capacity. As for the experimental part: The effects of compounds on the micturition reflex were assessed in the “distension-induced rhythmic contraction” (DIRC), as described in previous publications (e.g. Maggi et al, 1987; Morikawa et al, 1992), and Continuous Slow Transvesicular Infusion (CSTI) models in rats. Male Sprague Dawley rats weighing approximately 300 g were used for the study. Rats were anaesthetized with pentobarbitone sodium (50 mg/kg, i.p). Through a median abdominal incision, bladder was exposed and a polyethylene cannula (PE 50) was introduced into the bladder through a small cut on the dome of the bladder and the cannula was secured with a purse string suture. The other end of the cannula was exteriorized subcutaneously at the dorsal neck area. Similarly, another cannula (PE 50) was introduced into the stomach through a paramedian abdominal incision with the free end exteriorized subcutaneously to the neck region. The surgical wounds were closed with silk 4-0 suture and the animal was allowed to recover with appropriate post surgical care. On the following day, the animal was placed in a rat restrainer. The open end of the bladder-cannula was connected to a pressure transducer as well as infusion pump through a three-way stopcock. The bladder voiding cycles were initiated by continuous infusion of normal saline at the rate of 100 μl/min. The repetitive voiding contractions were recorded on a Power Lab on-line data acquisition software. After recording the basal voiding pattern for an hour, the test drug or vehicle was administered directly into stomach through the intragastric catheter and the voiding cycles were monitored for 5 hours. Micturition pressure and frequency were calculated before and after the treatment (at every 30 min interval) for each animal. Bladder capacity was calculated from the micturition frequency, based on the constant infusion of 100 ul/min. The effect of the test drug was expressed as a percentage of basal, pre-drug bladder capacity. WAY 100635 was used as positive control for comparison.

The test system of experiment [3] is G4F-7 cells. The following applies: cited from earlier work.
Experiment [4] deals with T1, human Histamine H1 receptor (Homo sapiens, UniProt P35367).
T1 construct: expressed in transfected cells
The experiment in a line: Binding affinity at cloned human Histamine H1 receptor. The following applies: read-out: hH1 Ki.

In experiment [5] the target is T2, rat MCH-1 (Rattus norvegicus, UniProt P97639). The experiment in a line: Radioligand binding assay at cloned rat MCH1 receptor ([3H] Compound A). Also on record: host or cells: Peak rapid 293 (Peakr293) cells, transient calcium phosphate transfection, membranes. The following applies: cloned rat MCH1 receptor, 0.08 nM [3H] Compound A, read-out: Ki (nM) rMCH1.
The target of experiment [6] is T3, human Alpha-1a Adrenergic receptor (Homo sapiens, UniProt P35348).
T3 construct: expressed in transfected cells
T3 sequence (P35348 1-466): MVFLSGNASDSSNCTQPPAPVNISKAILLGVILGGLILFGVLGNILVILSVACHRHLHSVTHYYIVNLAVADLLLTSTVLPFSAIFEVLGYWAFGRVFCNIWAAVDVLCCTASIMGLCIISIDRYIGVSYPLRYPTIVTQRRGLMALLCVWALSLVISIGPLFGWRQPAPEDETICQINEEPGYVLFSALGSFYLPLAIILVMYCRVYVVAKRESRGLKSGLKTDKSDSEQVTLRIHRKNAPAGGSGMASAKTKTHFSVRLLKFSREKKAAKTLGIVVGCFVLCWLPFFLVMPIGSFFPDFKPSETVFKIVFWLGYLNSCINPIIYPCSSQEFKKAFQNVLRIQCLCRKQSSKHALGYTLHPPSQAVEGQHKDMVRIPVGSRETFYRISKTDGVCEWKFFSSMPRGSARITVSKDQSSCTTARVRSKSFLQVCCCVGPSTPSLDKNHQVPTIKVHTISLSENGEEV
Briefly: Binding affinity at cloned human Alpha-1a Adrenergic receptor. As to conditions: read-out: hALPHA-1a Ki.

The target of experiment [7] is human Dopamine D2 receptor (Homo sapiens, UniProt P14416). The experiment in a line: Binding affinity at cloned human Dopamine D2 receptor. The following applies: read-out: hD2 Ki.
The target of experiment [8] is T2, rat MCH-1. As to conditions: cited from earlier work.
Experiment [9] concerns the target human MCH-1 (Homo sapiens, UniProt Q99705). The following applies: cited from earlier work.
For experiment [10], the system named is food intake induced by the intracerebroventricular application of MCH. The following applies: in vivo; cited from earlier work.

By Ki is commonly meant a dissociation constant, usually derived from enzyme kinetics or from competition with a known ligand. In general, Kd refers to a measure of binding affinity in units of concentration.

Where two headings read alike, the source gives them in different places. Some results are limits rather than exact numbers.

human Dopamine D2 receptor, sequence (P14416 whole entry): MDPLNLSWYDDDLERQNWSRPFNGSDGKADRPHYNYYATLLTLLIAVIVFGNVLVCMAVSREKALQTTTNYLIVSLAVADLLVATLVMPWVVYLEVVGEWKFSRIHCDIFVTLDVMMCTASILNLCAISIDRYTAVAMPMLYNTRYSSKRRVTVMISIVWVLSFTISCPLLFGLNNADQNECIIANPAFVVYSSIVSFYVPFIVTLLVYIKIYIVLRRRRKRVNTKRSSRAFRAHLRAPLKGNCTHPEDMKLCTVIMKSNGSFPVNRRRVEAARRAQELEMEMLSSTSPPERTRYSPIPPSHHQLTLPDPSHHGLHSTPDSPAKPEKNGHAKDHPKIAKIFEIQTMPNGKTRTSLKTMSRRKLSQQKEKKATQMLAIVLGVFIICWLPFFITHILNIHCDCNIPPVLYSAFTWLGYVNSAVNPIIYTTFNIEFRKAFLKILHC
T1 sequence (P35367 whole entry): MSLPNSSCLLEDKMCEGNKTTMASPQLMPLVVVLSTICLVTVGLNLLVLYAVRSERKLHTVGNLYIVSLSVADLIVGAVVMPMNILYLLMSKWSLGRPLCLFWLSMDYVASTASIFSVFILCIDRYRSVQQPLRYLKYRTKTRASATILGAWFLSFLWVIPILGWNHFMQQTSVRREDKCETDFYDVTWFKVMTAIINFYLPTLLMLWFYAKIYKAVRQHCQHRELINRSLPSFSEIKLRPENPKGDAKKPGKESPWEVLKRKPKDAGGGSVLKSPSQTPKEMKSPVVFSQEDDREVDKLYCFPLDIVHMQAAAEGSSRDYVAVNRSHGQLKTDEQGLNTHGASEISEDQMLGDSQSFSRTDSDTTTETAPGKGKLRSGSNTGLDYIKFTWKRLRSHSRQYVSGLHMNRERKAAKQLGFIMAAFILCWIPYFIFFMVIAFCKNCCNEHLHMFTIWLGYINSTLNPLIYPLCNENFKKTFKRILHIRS
T2 sequence (P97639 whole entry): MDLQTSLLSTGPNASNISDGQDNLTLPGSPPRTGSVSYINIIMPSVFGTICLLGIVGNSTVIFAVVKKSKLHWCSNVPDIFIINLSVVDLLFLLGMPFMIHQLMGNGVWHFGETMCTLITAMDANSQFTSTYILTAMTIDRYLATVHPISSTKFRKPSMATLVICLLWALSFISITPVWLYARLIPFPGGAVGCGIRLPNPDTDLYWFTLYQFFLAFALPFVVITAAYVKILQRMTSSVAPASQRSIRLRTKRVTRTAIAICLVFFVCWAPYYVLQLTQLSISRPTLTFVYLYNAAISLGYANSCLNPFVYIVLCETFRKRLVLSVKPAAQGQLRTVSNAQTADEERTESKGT
human MCH-1, sequence (Q99705 whole entry): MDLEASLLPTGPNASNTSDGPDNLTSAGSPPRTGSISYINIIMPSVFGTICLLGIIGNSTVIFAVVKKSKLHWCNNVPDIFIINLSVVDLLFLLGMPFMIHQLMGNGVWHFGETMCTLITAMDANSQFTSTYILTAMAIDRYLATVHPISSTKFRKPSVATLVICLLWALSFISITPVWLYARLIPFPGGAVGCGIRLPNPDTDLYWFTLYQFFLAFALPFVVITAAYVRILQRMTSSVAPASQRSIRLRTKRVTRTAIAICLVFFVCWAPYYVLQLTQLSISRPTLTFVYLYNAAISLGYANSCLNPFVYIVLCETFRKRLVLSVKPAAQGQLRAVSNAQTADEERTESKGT

Regarding `CC(=O)c1cccc(O[C@H](CCN2CCC(c3cccc(NC(=O)C(C)C)c3)CC2)c2ccccc2)c1` [Example 116], the “DIRC (contraction interval)” value in [1] is reported as “E”. Also, in [2], the “CSTI (bladder capacity)” value is given as “F”.
The matching figures for `CC(C)C(=O)Nc1cccc(C2CCN(CCCC(=O)c3ccc(Cl)cc3)CC2)c1` [Example 10]: “E” and “F”.
Turning to rat ANF, the Ki in experiment [3] (mouse melanoma cells, read-out: Ki (inhibition of [Phe13,Tyr19]-MCH binding)) was 116 nM.
Regarding `CC(C)C(=O)Nc1cccc(C2CCN(CC[C@H](Oc3ccc(-c4ccccc4)cc3)c3ccccc3)CC2)c1` [Example 78], in experiment [4], the inhibition constant (Ki) is greater than 50000 nM.
Regarding `CC(C)C(=O)Nc1cccc(C2CCN(CCC(OC(=O)c3cccc4ccccc34)c3ccccc3)CC2)c1` (stereo in doubt) [Example 69, (1S)-3-{4-[3-(ISOBUTYRYLAMINO)PHENYL]-1-PIPERIDINYL}-1-PHENYLPROPYL 1-NAPHTHOATE], the Ki in [5] (membranes from Peakr293 cells) is 32.5 nM; in [6], 232 nM; in [7], 46.6 nM; in experiment [4] it was greater than 50000 nM.
For the compound `CC(=O)Nc1cccc(C2CCN(CCCNC(=O)N3C(=O)O[C@H](C)[C@@H]3c3ccc(F)c(F)c3)CC2)c1` [Example 75], the inhibitory constant (Ki) worked out at 11.8 nM in [5] (membranes from Peakr293 cells), 2470 nM in [6], 19000 nM in experiment [7] and 2840 nM in experiment [4].
In the case of `CCn1c2ccccc2c2cc(CN3CCC(c4cccc(NC(=O)C(C)C)c4)CC3)ccc21` [Example 99], in [1], the “DIRC (contraction interval)” value is recorded as “E”. In [2], the “CSTI (bladder capacity)” value was “F”.
For the compound [Phe^13, Tyr^19]-MCH, the Kd in [3] (radioiodinated ligand, G4F-7 cells) was 0.118 nM.
On to `Cc1onc(-c2c(Cl)cccc2Cl)c1C(=O)NCCCCCN1CCC(c2cccc(NC(=O)C(C)C)c2)CC1` [Example 106], for which the “DIRC (contraction interval)” value in [1] is on record as “E”. Moreover, the “CSTI (bladder capacity)” value in [2] was “F”.
On to `Cc1ccc(C(=O)CCCN2CCC(c3cccc(NC(=O)C(C)C)c3)CC2)cc1C` [Example 2], for which, in experiment [1], the “DIRC (contraction interval)” value is recorded as “E”. Moreover, the “CSTI (bladder capacity)” value in [2] was “F”.
In the case of `CN(C)CC1CCc2cc(NC(=O)c3ccc(-c4ccc(F)cc4)cc3)ccc2C1` (stereo not shown) [Example T-226296, T-226296], the “affinity for the MCH-1 receptor” value in [8] and in [9] was 5 to 9 nM throughout. Further, the “food intake induced by intracerebroventricular MCH” value in experiment [10] is recorded as “inhibit food intake”.
For the compound `COC(CCN1CCC(c2cccc(NC(=O)C(C)C)c2)CC1)c1ccccc1` (stereo not shown) [Example 37], the inhibition constant (Ki) in [7] was found to be 34900 nM.
Take `COc1ccc2[nH]c(-c3ccccc3)c(CCCN3CCC(c4cccc(NC(=O)C(C)C)c4)CC3)c2c1` [Example 91]: the “DIRC (contraction interval)” value in [1] is “E”. Moreover, in experiment [2], the “CSTI (bladder capacity)” value is “F”.
Regarding `CC(C)C(=O)Nc1cccc(C2CCN(CCC(Oc3ccc(C(F)(F)F)cc3)c3ccc(Cl)cc3)CC2)c1` (stereo not shown) [Example 186], the Ki in experiment [5] (membranes from Peakr293 cells) worked out at 4.9 nM.
On to `CCC(=O)Nc1cccc(C2CCN(CCCCSc3ccccc3)CC2)c1` [Example 583], for which the Ki in experiment [5] (Peakr293 cell membranes) is 55.5 nM.
As for `CC(C)C(=O)Nc1cccc(C2CCN(CCCNC(=O)N3C(=O)OC[C@@H]3c3cc(F)c(F)c(F)c3)CC2)c1` [Example 577], the inhibition constant Ki in experiment [5] (Peakr293 cell membranes) turned out to be 64.7 nM.
On to `CC(C)C(=O)Nc1cccc(C2CCN(CCCCCCNC(=O)Nc3ccc(-c4ccccc4)cc3)CC2)c1` [Example 635], for which the Ki in experiment [5] (Peakr293 cell membranes) came to 73.6 nM.
As for `Cc1c(CN2CCC(c3cccc(NC(=O)C(C)C)c3)CC2)cnn1-c1ccccc1` [Example 218], the Ki in [5] (membranes from Peakr293 cells) was 126 nM.
Same read-out and setting: with `CC(=O)c1cccc(OC(CCN2CCC(c3cccc(NC(=O)C(C)C)c3)CC2)c2ccc(Cl)cc2)c1` (stereo not shown) [Example 166] the figure was 7.7 nM.
Consider `CC(C)C(=O)Nc1cccc(C2CCN(CCCC3OCC(C)(C)CO3)CC2)c1` [Example 374], for which, in experiment [5] (membranes from Peakr293 cells), the Ki came to 96.8 nM.

(Values after US6727264B1 (Synaptic Pharmaceutical Corporation, priority 2001, dated 2004).)
